Test system: EGFR
Experiment: EGFR single-particle tracking and diffusion analysis (dark-field, anti-EGFR-AuNP)
Assay type: cell-based
Conditions: ERK-KTR cells; NOExo treatment (complex of Example 1 + hν) or EGF treatment; untreated control 0.071
Source text: To confirm whether the activation of ERK by NO generated from the complex of Example 1 was induced by other receptors or membrane features, thus perturbing other signaling pathways, such as the MAPK pathway activated by the […] of EGF receptors (EGFRs) or by nonspecific disturbances caused by the formation of cellular membranes like lipid rafts, individual EGFRs in live cells were tracked, and analyzed.
Time-lapse dark-field microscope images were taken every 20 ms for 10 s. Lateral diffusion motion of protein was analyzed by particle trajectories. TrackMate plugin on Image J was used for single-particle tracking and trajectory analysis. For each particle, mean square displacement (MSD) was calculated from the x, y position and time information obtained from trajectory analysis; MSD(t)=<(xi+n−xi)^2+(yi+n−yi)^2>. The MSD versus time intervals were plotted up to the time lag (t) equivalent to 1/10th of the trajectory duration, then fitted to a linear equation corresponding to the Brownian motion. Diffusion coefficient (D) was calculated from the slope of the first ten points of the MSD plot; MSD=4Dt.
For single-molecule tracking of EGFR, anti-EGFR (EGFR anti-bodies) was conjugated to gold nanoparticles (AuNPs, 50 nm in diameter) using the biotin-neutravidin interaction (FIG. 8A), achieving high specificity (FIG. 8B). […]

Substance: epidermal growth factor [EGF, reference compound]
- diffusion coefficient of EGFR (DEGFR): 0.017 μm^2 s^−1

Reference: US11351260B2, “Photocleavable cobalt-nitrosyl complex and nitric oxide carrier containing the same” (DAEGU GYEONGBUK INSTITUTE OF SCIENCE AND TECHNOLOGY, priority 2019, dated 2022)
